Assay results taken from patent US20110263696A1, “PROANTHOCYANIDINS FROM CINNAMON AND ITS WATER SOLUBLE EXTRACT INHIBIT TAU AGGREGATION” (priority 2007, published 2011).

Legend:
[1] = molecular target: T1, tau187 (Homo sapiens, UniProt P10636); assay: Turbidity (OD350) assay of heparin-induced aggregation, tau187; format: biochemical; conditions: cinnamaldehyde 50 and 100 uM; tau187 50 uM, heparin 0.11 mg/ml, 23 C
T1 construct: his; made in house; host or cells: bacteria
Procedure: FIG. 15A. […] 50 μM Tau^187 was incubated with 0.11 mg/ml heparin (18 kDa) at 23° C. Aggregation was monitored by turbidity (OD350). Cinnamaldehyde was present at a final concentration of 0, 50 and 100 μM. FIG. 15B. Electron microscopy of tau fibers in the presence of cinnamaldehyde (CA). Tau fibers were visualized by electron microscopy after 5 hrs of aggregation in the presence of: 0 CA (left panel); B) 100 uM CA (right panel). […] FIG. 15 C. Trans-cinnamaldehyde chemical structure. FIG. 16A. […] 50 uM tau187 was incubated with 0.11 mg/mL heparin (18 kDa) at 23° C. Epicatechin was untreated, treated with 10 mM NH4OH for 10 min at 95° C. then neutralized, or treated with 100 U of mushroom tyrosinase (Sigma) for 10 min. Epicatechin was added to the reaction at a final concentration of 25 uM. Fiber formation was monitored by OD 350. FIG. 16B. epicatechin and catechin chemical structures. FIG. 17A. HPLC analysis of proanthocyanidin A-type trimer, A) purified or B) in whole cinnamon extract. The trimer corresponds to the major peak at ˜40 min. Areas underneath the peaks in panels A and B each correspond to 6150 pmoles. […] Fiber formation was monitored by OD 350. Concentrations of A-trimer in pure form and in whole cinnamon extract (CE) were normalized by absorbance measurements of the A-trimer resolved by HPLC. […]

[2] = molecular target: T1, tau187; assay: Electron microscopy of tau187 fibers; format: biochemical; conditions: 100 uM CA, 5 hrs of aggregation
Procedure: FIG. 6. […] Aggregation of tau^187 (50 uM) was initiated with heparin (0.1 mg/ml) in 20 mM NaPO4, pH 7.0. in the presence of: no proanthocyanidin (left panel), or 200 uM purified A-type trimer (right panel). Scale: Bars=500 nm
FIG. 13. Effect of oxidized cinnamon on tau filament formation. […] Left panel: no cinnamon; right panel 10 μM oxidized cinnamon.
FIG. 15A. […] 50 μM Tau^187 was incubated with 0.11 mg/ml heparin (18 kDa) at 23° C. Aggregation was monitored by turbidity (OD350). Cinnamaldehyde was present at a final concentration of 0, 50 and 100 μM. FIG. 15B. Electron microscopy of tau fibers in the presence of cinnamaldehyde (CA). Tau fibers were visualized by electron microscopy after 5 hrs of aggregation in the presence of: 0 CA (left panel); B) 100 uM CA (right panel). […] FIG. 15 C. Trans-cinnamaldehyde chemical structure.
Two hexapeptide motifs in tau are critical for tau aggregation and fiber formation (see, e.g. von Bergen et al., Proc Nad Acad Sci USA 97, 5129-34 (2000)). These motifs lie in the first and second inter-repeat regions of the MT binding domain (FIG. 5), and it is known that engineered truncation fragments of tau that contain these motifs often undergo aggregation into fibers even more efficiently than the full-length molecule (see, e.g. Barghorn et al., Biochemistry 41, 14885-96 (2002)). […]

[3] = test system: tau polypeptides; assay: Light scattering measurements (absorbance at 350 nm) of tau aggregation; format: biochemical, human
Procedure: FIG. 11. Dose response of cinnamon (oxidized) on tau aggregation. […] In this experiment, cinnamon was incubated overnight in 10 mM NH4OH.
FIG. 12. Effect of cinnamon A trimer on light scattering of tau.
In one illustrative embodiment of the invention, the effects of cinnamon extract or purified cinnamon proanthocyanidins on tau aggregation can be followed readily in a spectrophotometer by measuring the change in absorbance at 350 nm. The association of tau promoted by heparin causes an increase in absorbance. […] Different buffers and temperatures may be used if desired to study factor influencing aggregation.

[4] = literature; cited from earlier work
[5] = test system: tau; conditions: literature; cited from earlier work

T1 sequence (P10636 572-758 limits assumed): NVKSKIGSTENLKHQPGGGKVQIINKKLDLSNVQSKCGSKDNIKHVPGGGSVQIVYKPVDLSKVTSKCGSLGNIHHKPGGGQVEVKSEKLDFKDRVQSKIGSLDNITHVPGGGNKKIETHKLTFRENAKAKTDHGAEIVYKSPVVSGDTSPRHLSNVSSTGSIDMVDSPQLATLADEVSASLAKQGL

O=C/C=C/c1ccccc1 [cinnamaldehyde, Trans-cinnamaldehyde]
Inhibition of tau187 aggregation (turbidity OD350) [1]: Inhibition of tau aggregation | Tau fiber density by EM [2]: dramatically reduced

Oc1cc(O)c2c(c1)O[C@H](c1ccc(O)c(O)c1)[C@H](O)[C@H]2c1c(O)cc(O)c2c1O[C@H](c1ccc(O)c(O)c1)[C@H](O)C2 [cinnamon proanthocyanidin B2, proanthocyanidin B2]
Inhibition of tau aggregation by light scattering [3]: inhibits the aggregation

Oc1cc(O)c2c(c1)O[C@H](c1ccc(O)c(O)c1)[C@H](O)C2 [epicatechin]
Brain permeability after oral ingestion [4]: brain-permeable

O=C(O[C@@H]1Cc2c(O)cc(O)cc2O[C@@H]1c1cc(O)c(O)c(O)c1)c1cc(O)c(O)c(O)c1 [epigallocatechin gallate]
Inhibition of tau aggregation (published studies) [5]: effectively inhibit tau aggregation

Oc1cc(O)c2c(c1)O[C@H](c1ccc(O)c(O)c1)[C@H](O)[C@H]2c1c(O)cc(O)c2c1O[C@H](c1ccc(O)c(O)c1)[C@@H](O)C2 [proanthocyanidin dimer B1]
Inhibition of tau aggregation (published studies) [5]: effectively inhibit tau aggregation
